Reference: patent US20090299036A1, “AGENT FOR PREVENTING ARTERIOSCLEROSIS, AGENT FOR SUPPRESSING VASCULAR INTIMAL THICKENING AND AGENT FOR IMPROVING VASCULAR ENDOTHELIAL FUNCTION” (Calpis Co, Ltd, priority 2006, published 2009)

Assays:
[1] = test system: thoracic aorta of Wistar rats; test: Endothelium-dependent vasodilator response of aorta ring from L-NAME-treated rats (Magnus apparatus); type: in vivo, rat
Experimental: Wistar rats (7 weeks of age, male) as the test animals were acclimatized for one week. A nitric oxide synthesis inhibitor, NG-nitro-L-arginine methyl ester hydrochloride (L-NAME, manufactured by SIGMA-ALDRICH CORP.) was dissolved in drinking water at the concentration of 1 g/L, and similarly, L-NAME and Val-Pro-Pro synthesized above at 1 g/L and 0.3 g/L, respectively, and L-NAME and Ile-Pro-Pro synthesized above at 1 g/L and 0.3 g/L, respectively. The rats were allowed free access to the prepared drinking water for one week. As a control, only the drinking water without L-NAME dissolved therein was given to a non-treatment group.
Then, the rats were subjected to fatal exsanguination under diethyl ether anesthesia. The thoracic aorta was taken out, cut into 2 mm long, and made into an aorta ring. The ring was set in a Magnus apparatus (product name “micro tissue organ bath MTOB-1Z”, manufactured by LABO SUPPORT CO., LTD.) filled with 5 ml of Tyrode's solution (composition: 158.3 mM of NaCl, 4.0 mM of KCl, 2.0 mM of CaCl2, […] of MaCl2, 0.42 mM of NaH2PO4, 10.0 mM of NaHCO3, and 5.6 mM of glucose; pH 7.4, 37±0.5° C.), and allowed to equilibrate with the resting tension of 2.0 g. The aorta ring was then allowed to constrict with 1 μM of phenylephrine. […] The degree of vasodilation by the response was determined as a ratio to the constriction with 1 μM of phenylephrine. […]

arteriosclerosis = conditions: Non-patent Publication 5; cited from earlier work

Q: Which results are given for `CCOC(=O)[C@H](CCc1ccccc1)N[C@@H](C)C(=O)N1CCC[C@H]1C(=O)O` [enalapril]?
A: Degree of vasodilation ([1]; drinking water for one week: L-NAME 1 g/L, peptide 0.3 g/L, enalapril 0.5 mg/L, 10 μM acetylcholine, ratio to constriction with 1 μM phenylephrine, group average): 31.6%; degree of vasodilation compared to the group given only L-NAME ([1]; given together with L-NAME): no significant difference; arteriosclerosis inhibitory effect (arteriosclerosis): does not result in an arteriosclerosis inhibitory effect
